In ChEMBL document CHEMBL4818999, “Pyrido[2, 3-d]pyrimidin-7(8H)-ones as new selective orally bioavailable Threonine Tyrosine Kinase (TTK) inhibitors” (Eur J Med Chem, 2021):

How the values were obtained:
[1] = target: T1, Dual specificity protein kinase TTK (Homo sapiens, UniProt P33981); test: Binding affinity to wild-type human partial length TTK (N505 to V798 residues) expressed in bacterial expression system by active site-directed competition binding based Kinomescan method
T1 sequence (P33981 whole entry): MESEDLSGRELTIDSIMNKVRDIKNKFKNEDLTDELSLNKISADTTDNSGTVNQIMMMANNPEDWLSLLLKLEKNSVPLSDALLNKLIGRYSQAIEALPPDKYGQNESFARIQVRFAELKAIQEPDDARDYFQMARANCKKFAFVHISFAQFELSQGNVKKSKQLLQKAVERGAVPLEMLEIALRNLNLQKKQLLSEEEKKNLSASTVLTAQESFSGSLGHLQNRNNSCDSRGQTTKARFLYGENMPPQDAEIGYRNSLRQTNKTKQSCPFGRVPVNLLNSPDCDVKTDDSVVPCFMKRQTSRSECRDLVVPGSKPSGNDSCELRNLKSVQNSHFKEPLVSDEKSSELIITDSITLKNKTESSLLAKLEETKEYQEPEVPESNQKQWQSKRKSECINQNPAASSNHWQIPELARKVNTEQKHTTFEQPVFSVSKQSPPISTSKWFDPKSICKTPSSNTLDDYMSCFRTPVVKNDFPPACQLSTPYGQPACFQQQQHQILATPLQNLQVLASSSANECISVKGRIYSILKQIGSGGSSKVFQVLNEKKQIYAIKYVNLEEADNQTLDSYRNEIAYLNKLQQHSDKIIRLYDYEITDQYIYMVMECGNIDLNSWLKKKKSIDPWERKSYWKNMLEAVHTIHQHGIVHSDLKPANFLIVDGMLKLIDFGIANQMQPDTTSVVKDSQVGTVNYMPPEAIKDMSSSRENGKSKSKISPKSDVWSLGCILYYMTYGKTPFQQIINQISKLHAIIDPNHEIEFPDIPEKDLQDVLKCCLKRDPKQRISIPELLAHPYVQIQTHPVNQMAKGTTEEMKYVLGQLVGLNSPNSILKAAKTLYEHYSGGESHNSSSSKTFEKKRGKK

[2] = target: T1, Dual specificity protein kinase TTK; test: Inhibition of recombinant full-length human TTK using MBP as substrate incubated for 40 mins in presence of [gamma33P]ATP by scintillation counting based radiometry assay relative to control
[3] = Oral bioavailability in Sprague-Dawley rat at 25 mg/kg; assay type: ADME, organism-based; conditions: in vivo
[4] = AUC (0 to infinity) in Sprague-Dawley rat at 25 mg/kg, po; assay type: ADME, organism-based; design: time infinity, route oral, dose 25 mg/kg; conditions: in vivo
[5] = Cmax in Sprague-Dawley rat at 25 mg/kg, po; assay type: ADME, organism-based; design: route oral, dose 25 mg/kg; conditions: in vivo
[6] = Cmax in Sprague-Dawley rat at 5 mg/kg, iv; assay type: ADME, organism-based; design: route intravenous, dose 5 mg/kg; conditions: in vivo
[7] = Half life in Sprague-Dawley rat at 25 mg/kg, po; assay type: ADME, organism-based; conditions: in vivo
[8] = AUC (0 to infinity) in Sprague-Dawley rat at 5 mg/kg, iv; assay type: ADME, organism-based; design: route intravenous, time infinity, dose 5 mg/kg; conditions: in vivo
[9] = Clearance in Sprague-Dawley rat at 5 mg/kg, iv; assay type: ADME, organism-based; conditions: in vivo
[10] = Half life in Sprague-Dawley rat at 5 mg/kg, iv; assay type: ADME, organism-based; conditions: in vivo
HCT-116 = test: Antitumor activity at human HCT-116 cells xenografted in CB17-SCID mouse assessed as tumor growth inhibition at 20 mg/kg, ip administered once weekly for 16 days relative to control; assay type: functional; conditions: HCT-116, ip, 384 h, time 16 day, read-out: TGI

Row | SMILES | Kd [1] [nM] | other results
1 | CCC(=O)N[C@H]1CC[C@@H](n2c(=O)cc(C)c3cnc(Nc4ccc(N5CCN(C)CC5)c(OC)c4)nc32)CC1 | 4.2 | 
2 | CCC(=O)N[C@H]1CC[C@@H](n2c(=O)cc(C3CC3)c3cnc(Nc4ccc(N5CCN(C)CC5)cc4OC)nc32)CC1 | 7.9 | IC50 [2]: 50 nM
3 | COc1cc(N2CCN(C)CC2)ccc1Nc1ncc2c(C)cc(=O)n([C@H]3CC[C@@H](NC(=O)C45CC6CC(CC(C6)C4)C5)CC3)c2n1 | 0.56 | 
4 | CCC(=O)N[C@H]1CC[C@@H](n2c(=O)cc(C)c3cnc(Nc4ccc(N5CCN(C)CC5)cc4OC)nc32)CC1 | 0.71 | 
5 | CCC(=O)N[C@H]1CC[C@@H](n2c(=O)c(C)cc3cnc(Nc4ccc(N5CCN(C)CC5)cc4OC)nc32)CC1 | 0.29 | 
6 | CCC(=O)N[C@H]1CC[C@@H](n2c(=O)cc(CC)c3cnc(Nc4ccc(N5CCN(C)CC5)cc4OC)nc32)CC1 | 1.5 | 
7 | COc1cc(N2CCN(C)CC2)ccc1Nc1ncc2c(C)cc(=O)n([C@H]3CC[C@@H](NC(C)=O)CC3)c2n1 | 0.72 | 
8 | CCC(=O)N1CCC[C@H](n2c(=O)cc(C)c3cnc(Nc4ccc(N5CCN(C)CC5)cc4OC)nc32)C1 | 200 | 
9 | CCC(=O)N1CCC(n2c(=O)cc(C)c3cnc(Nc4ccc(N5CCN(C)CC5)cc4OC)nc32)CC1 | 9.3 | 
10 | COc1cc(N2CCN(C)CC2)ccc1Nc1ncc2c(C)cc(=O)n([C@H]3CC[C@@H](NC(=O)c4cccc5ccccc45)CC3)c2n1 | 1.1 | 
11 | CCC(=O)N1CC(n2c(=O)cc(C)c3cnc(Nc4ccc(N5CCN(C)CC5)cc4OC)nc32)C1 | > 1000 | 
12 | COc1cc(N2CCN(C)CC2)ccc1Nc1ncc2c(C)cc(=O)n([C@H]3CC[C@@H](NC(=O)C4CCCC4)CC3)c2n1 | 0.12 | IC50 [2]: 19 nM
13 | CCC(=O)N1CC[C@H](n2c(=O)cc(C)c3cnc(Nc4ccc(N5CCN(C)CC5)cc4OC)nc32)C1 | 145 | 
14 | CCC(=O)N[C@H]1CC[C@@H](n2c(=O)cc(-c3ccccc3)c3cnc(Nc4ccc(N5CCN(C)CC5)cc4OC)nc32)CC1 | 825 | 
15 | COc1cc(N2CCN(C)CC2)ccc1Nc1ncc2c(C)cc(=O)n([C@H]3CC[C@@H](NC(=O)C(C)C)CC3)c2n1 | 0.5 | 
16 | CCC(=O)N1CCC[C@@H](n2c(=O)cc(C)c3cnc(Nc4ccc(N5CCN(C)CC5)cc4OC)nc32)C1 | 250 | 
17 | CCC(=O)N1CC[C@@H](n2c(=O)cc(C)c3cnc(Nc4ccc(N5CCN(C)CC5)cc4OC)nc32)C1 | 310 | 
18 | CCC(=O)N[C@H]1CC[C@H](n2c(=O)cc(C)c3cnc(Nc4ccc(N5CCN(C)CC5)cc4OC)nc32)CC1 | 2.8 | 
19 | CCC(=O)N[C@H]1CC[C@@H](n2c(=O)ccc3cnc(Nc4ccc(N5CCN(C)CC5)cc4OC)nc32)CC1 | 0.41 | 
20 | COc1cc(N2CCN(C)CC2)ccc1Nc1ncc2cc(C)c(=O)n([C@H]3CC[C@@H](NC(=O)C4CCCCC4)CC3)c2n1 | 0.17 | bioavailability [3]: 39.6%; IC50 [2]: 20 nM; AUC(0-inf) [4]: 33300 ng·h/mL; Cmax [5]: 2300 ng/mL; Cmax [6]: 4740 ng/mL; half-life [7]: 7.62 h; AUC(0-inf) [8]: 15500 ng·h/mL; clearance [9]: 5.61 mL/min/kg; half-life [10]: 6.2 h
21 | COc1cc(N2CCN(C)CC2)ccc1Nc1ncc2c(C)cc(=O)n([C@H]3CC[C@@H](NC(=O)C(C)(C)C)CC3)c2n1 | 0.2 | 
22 | CCC(=O)N[C@H]1CC[C@@H](n2c(=O)cc(C)c3cnc(Nc4ccc(N5CCN(C)CC5)cc4C)nc32)CC1 | 0.63 | 
23 | COc1cc(N2CCN(C)CC2)ccc1Nc1ncc2c(C)cc(=O)n([C@H]3CC[C@@H](NCC4CC4)CC3)c2n1 | 6.1 | 
24 | C=CC(=O)N1CC[C@H](n2c(=O)cc(C)c3cnc(Nc4ccc(N5CCN(C)CC5)cc4OC)nc32)C1 | 190 | 
25 | COc1cc(N2CCN(C)CC2)ccc1Nc1ncc2c(C)cc(=O)n([C@H]3CC[C@@H](NC(=O)c4ccccc4)CC3)c2n1 | 0.3 | 
26 | CCC(=O)N[C@H]1CC[C@@H](n2c(=O)cc(C)c3cnc(Nc4ccc(N5CCN(C)CC5)c(C)c4)nc32)CC1 | 3.9 | 
27 | COc1cc(N2CCN(C)CC2)ccc1Nc1ncc2c(C)cc(=O)n([C@H]3CC[C@@H](NC(=O)C4CC4)CC3)c2n1 | 0.41 | 
28 | COc1cc(N2CCN(C)CC2)ccc1Nc1ncc2cc(C)c(=O)n([C@H]3CC[C@@H](NC(=O)C4CCCC4)CC3)c2n1 | 0.17 | IC50 [2]: 11 nM
29 | CC(=O)O[C@H]1C(=O)[C@@]2(C)[C@H]([C@H](OC(=O)c3ccccc3)[C@]3(O)C[C@H](OC(=O)[C@H](O)[C@@H](NC(=O)c4ccccc4)c4ccccc4)C(C)=C1C3(C)C)[C@]1(OC(C)=O)CO[C@@H]1C[C@@H]2O [PACLITAXEL] |  | inhibition in vivo at 20 mg/kg (HCT-116): 52%
